The molecules below were run against T1, Lp-PLA2 (Homo sapiens, UniProt Q13093) (assay: Lipoprotein-associated phospholipase A2 (Lp-PLA2) human plasma assay (Thio-PAF assay)). Settings: Lp-PLA2 human plasma assay (Thio-PAF), pooled human plasma, 30-min pre-incubation at room temperature.
T1 construct: aliquoted and thawed 40 μL of pooled human plasma was previously added; from tissue; host or cells: pooled human plasma
T1 sequence (Q13093 22-441): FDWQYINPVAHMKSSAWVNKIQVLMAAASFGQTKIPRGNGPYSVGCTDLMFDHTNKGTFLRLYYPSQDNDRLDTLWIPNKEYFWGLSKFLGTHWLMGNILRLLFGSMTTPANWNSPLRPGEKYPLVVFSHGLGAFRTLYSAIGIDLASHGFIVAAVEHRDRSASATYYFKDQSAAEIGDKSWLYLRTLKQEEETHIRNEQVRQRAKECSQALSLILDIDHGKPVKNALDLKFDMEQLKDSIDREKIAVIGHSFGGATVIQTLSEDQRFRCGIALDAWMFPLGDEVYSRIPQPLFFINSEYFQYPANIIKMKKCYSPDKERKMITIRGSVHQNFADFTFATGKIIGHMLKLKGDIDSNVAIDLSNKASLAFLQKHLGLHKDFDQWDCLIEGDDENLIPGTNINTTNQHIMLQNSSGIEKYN
Format: biochemical

Q: How did the IC50 turn out when `O=c1nc(OCc2ccc(Oc3ccnc(C(F)(F)F)c3)c(F)c2)cc2n1C[C@@]13C[C@@H](CN21)N(C1COC1)C3` [Example 172] was run?
A: 2.2 nM

Q: With `O=c1nc(OCc2ccc(Oc3ccnc(C(F)(F)F)c3)c(F)c2)cc2n1C[C@@]13C[C@@H](CN21)N(CC(F)(F)F)C3` [Example 173] as the molecule, how does the IC50 read?
A: 3.4 nM

Q: `O=C(c1ccccc1)N1C[C@]23C[C@H]1CN2c1cc(OCc2ccc(Oc4ccnc(C(F)(F)F)c4)c(F)c2)nc(=O)n1C3` [Example 174] was tested. Which IC50 did it give?
A: 5 nM

Q: Which IC50 does the source give for `COc1c(NCc2ccc(F)c(F)c2)nc(=O)n2c1N1C[C@@H]3C[C@]1(CO3)C2` [Example 175, (3S,11aR)-7-((3,4-Difluorobenzyl)amino)-6-methoxy-3,4-dihydro-1H,9H,11H-3,11a-methanopyrimido[6′, 1′:2, 3]imidazo[5,1-c] [1, 4]oxazin-9-one] here?
A: 168 nM

Q: For `O=c1nc(OCc2cc(F)c(Oc3ccnc(C(F)F)c3)c(F)c2)cc2n1CC13CC(CN21)C3` [Example 176, 3-((4-((2-(difluoromethyl)pyridin-4-yl)oxy)-3,5-difluorobenzyl)oxy)-7,8-dihydro-1H,6H, 9H-7,8a-methanopyrrolo[1′,2′:3,4]imidazo [1,2-c]pyrimidin-1-one], which IC50 is on record?
A: 13.9 nM

Q: Which IC50 does the source give for `O=c1nc(OCc2ccc(Oc3ccnc(C(F)(F)F)c3)c(F)c2)cc2n1C[C@@]13C[C@@H](CN21)N(C1CCC1)C3` [Example 177, (3S,11aS)-2-cyclobutyl-7-((3-fluoro-4-((2-(trifluoromethyl)pyridin-4-yl)oxy)benzyl)oxy)-1,2,3,4-tetrahydro-9H,11H-3,11a-methano-pyrazino[l′,2′:3,4]imidazo[1,2-c]pyrimidin-9-one] here?
A: 5.5 nM

Q: For `O=c1nc(OCc2ccc(Oc3ccnc(C(F)(F)F)c3)c(F)c2)cc2n1C[C@@]13C[C@@H](CN21)N(Cc1ccccc1)C3` [Example 178, (3S,11aS)-2-benzyl-7-((3-fluoro-4-((2-(tri-fluoromethyl)pyridin-4-yl)oxy)benzyl)oxy)-1,2,3,4-tetrahydro-9H,11H-3,11a-methano-pyrazino[1′,2′:3,4]imidazo[1,2-c]pyrimidin-9-one], which IC50 is on record?
A: 6.2 nM

Q: For `O=c1nc(OCc2cc(F)c(Oc3cccc(C(F)F)c3)c(F)c2)cc2n1C[C@]13CO[C@H](CN21)C3` [Example 179], which IC50 is on record?
A: 4.1 nM

Q: `COc1c(N(C)Cc2ccc(F)c(F)c2)nc(=O)n2c1N1C[C@@H]3C[C@]1(CO3)C2` [Example 180] was tested. Which IC50 did it give?
A: 87.2 nM

Q: `O=c1nc(OCCc2ccc(Oc3cccc(C(F)(F)F)c3)c(F)c2)cc2n1C[C@]13CO[C@H](CN21)C3` [Example 181, (3S,11aR)-7-(3-fluoro-4-(3-(trifluoromethyl)phenoxy)phenethoxy)-3,4-dihydro-1H,9H, 11H-3,11a-methanopyrimido[6′,1′:2,3]imidazo [5,1-c][1,4]oxazin-9-one] was tested. Which IC50 did it give?
A: 6.7 nM

Q: How did the IC50 turn out when `O=c1nc(OCCc2ccc(Oc3cccc(C(F)(F)F)c3)c(F)c2)cc2n1CC13CC(CN21)C3` [Example 182, 3-(3-fluoro-4-(3-(trifluoromethyl)phenoxy)phenethoxy)-7,8-dihydro-1H,6H,9H-7,8a-methanopyrrolo[1′,2′:3,4]imidazo[1,2-c] pyrimidin-1-one] was run?
A: 9.4 nM

Q: Which IC50 does the source give for `COc1c(OCCc2ccc(Oc3cccc(C(F)(F)F)c3)c(F)c2)nc(=O)n2c1N1CC3CC1(C3)C2` [Example 183, 3-(3-fluoro-4-(3-(trifluoromethyl)phenoxy)phenethoxy)-4-methoxy-7,8-dihydro-1H,6H, 9H-7,8a-methanopyrrolo[1′,2′:3,4]imidazo [1,2-c]pyrimidin-1-one] here?
A: 13.8 nM

Q: With `COc1c(OCCc2ccc(Oc3cccc(C(F)(F)F)c3)cc2)nc(=O)n2c1N1CC3CC1(C3)C2` [Example 184, 4-methoxy-3-(4-(3-(trifluoromethyl)phenoxy)phenethoxy)-7,8-dihydro-1H,6H,9H-7,8a-methanopyrrolo[1′,2′:3,4]imidazo[1,2-c] pyrimidin-1-one] as the molecule, how does the IC50 read?
A: 23.8 nM

Q: How did the IC50 turn out when `O=c1nc(OCCc2ccc(Oc3ccc(Cl)c(C(F)(F)F)c3)c(F)c2)cc2n1C[C@]13CO[C@H](CN21)C3` [Example 185] was run?
A: 4.7 nM

Q: How did the IC50 turn out when `O=c1nc(OCCc2ccc(Oc3ccc(Cl)c(C(F)(F)F)c3)c(F)c2)cc2n1CC13CC(CN21)C3` [Example 186, 3-(4-(4-chloro-3-(trifluoromethyl)phenoxy)-3-fluorophenethoxy)-7,8-dihydro-1H,6H,9H-7,8a-methanopyrrolo[1′,2′:3,4]imidazo[1,2-c] pyrimidin-1-one] was run?
A: 7.4 nM

Q: With `COc1c(OCCc2ccc(Oc3ccc(Cl)c(C(F)(F)F)c3)c(F)c2)nc(=O)n2c1N1CC3CC1(C3)C2` [Example 187, 3-(4-(4-chloro-3-(trifluoromethyl)phenoxy)-3-fluorophenethoxy)-4-methoxy-7,8-dihydro-1H,6H,9H-7,8a-methanopyrrolo[1′,2′:3,4] imidazo[1,2-c]pyrimidin-1-one] as the molecule, how does the IC50 read?
A: 7.8 nM

Q: With `COc1c(OCCc2ccc(Oc3ccnc(C(F)(F)F)c3)cc2)nc(=O)n2c1N1CC3CC1(C3)C2` [Example 188] as the molecule, how does the IC50 read?
A: 9.2 nM

Q: How did the IC50 turn out when `COc1c(OCCc2cc(F)c(Oc3ccnc(C(F)(F)F)c3)c(F)c2)nc(=O)n2c1N1CC3CC1(C3)C2` [Example 189, 3-(3,5-difluoro-4-((2-(trifluoromethyl)pyridin-4-yl)oxy)phenethoxy)-4-methoxy-7,8-dihydro-1H,6H,9H-7,8a-methanopyrrolo[1′,2′:3,4] imidazo[1,2-c] pyrimidin-1-one] was run?
A: 8.6 nM

Q: With `O=c1nc(OCCc2ccc(Oc3ccnc(C(F)(F)F)c3)c(F)c2)cc2n1CC13CC(CN21)C3` [Example 190, 3-(3-fluoro-4-((2-(trifluoromethyl)pyridin-4-yl)oxy)phenethoxy)-7,8-dihydro-1H,6H,9H-7,8a-methanopyrrolo[1′,2′:3,4]imidazo[1,2-c] pyrimidin-1-one] as the molecule, how does the IC50 read?
A: 5.9 nM

Q: `COc1c(OCCc2ccc(Oc3ccnc(C(F)(F)F)c3)c(F)c2)nc(=O)n2c1N1CC3CC1(C3)C2` [Example 191, 3-(3-fluoro-4-((2-(trifluoromethyl)pyridin-4-yl)oxy)phenethoxy)-4-methoxy-7,8-dihydro-1H,6H,9H-7,8a-methanopyrrolo[1′,2′:3,4] imidazo[1,2-c]pyrimidin-1-one] was tested. Which IC50 did it give?
A: 6.2 nM

Q: With `O=c1nc(OCc2ccc(Oc3cccc(C(F)(F)F)c3)c(F)c2)cc2n1C[C@]13CO[C@H](CN21)C3` [Example 192] as the molecule, how does the IC50 read?
A: 6.3 nM

Q: `N#Cc1cc(COc2cc3n(c(=O)n2)C[C@]24CO[C@H](CN32)C4)ccc1F` [Example 193] was tested. Which IC50 did it give?
A: 5.2 nM

Q: `O=c1nc(OCc2cc(F)c(Oc3cccc(C(F)(F)F)c3)c(F)c2)cc2n1C[C@]13CO[C@H](CN21)C3` [Example 194, (3S,11aR)-7-((3,5-difluoro-4-(3-(trifluoro-methyl)phenoxy)benzyl)oxy)-3,4-dihydro-1H,9H,11H-3,11a-methanopyrimido[6′,1′:2,3] imidazo[5,1-c][1,4]oxazin-9-one] was tested. Which IC50 did it give?
A: 4 nM

Q: For `O=c1nc(OCCc2ccc(F)c(F)c2)cc2n1C[C@]13CO[C@H](CN21)C3` [Example 195, (3S,11aR)-7-(3,4-difluorophenethoxy)-3,4-dihydro-1H,9H,11H-3,11a-methano-pyrimido[6′,1′:2,3]imidazo[5,1-c][l,4]oxazin-9-one], which IC50 is on record?
A: 62.7 nM

Q: Which IC50 does the source give for `O=c1nc(OCc2ccc(Oc3ccnc(C(F)F)c3)c(F)c2)cc2n1CC13CCC(CC1)N23` [Example 196] here?
A: 15.4 nM

Q: Which IC50 does the source give for `Cn1ccc(CN2C(=O)[C@]34C[C@H]2CN3c2cc(OCc3ccc(Oc5ccnc(C(F)(F)F)c5)c(F)c3)nc(=O)n2C4)n1` [Example 197, (3S,11aR)-7-((3-fluoro-4-((2-(trifluoromethyl)pyridin-4-yl)oxy)benzyl)oxy)-2-((1-methyl-1H-pyrazol-3-yl)methyl)-3,4-dihydro-9H, 11H-3,11a-methanopyrazino[1′2′:3,4]imidazo [1,2-c]pyrimidin-1,9(2H)-dione] here?
A: 2.9 nM

Q: With `O=C1N(CC23CC(C2)C3)[C@@H]2CN3c4cc(OCc5ccc(Oc6ccnc(C(F)(F)F)c6)c(F)c5)nc(=O)n4C[C@]13C2` [Example 198, (3S,11aR)-2-(bicyclo[1.1.1]pent-1-ylmethyl)-7-((3-fluoro-4-((2-(trifluoromethyl)pyridin-4-yl)oxy)benzyl)oxy)-3,4-dihydro-9H,11H-3,11a-methanopyrazino[1′,2′:3,4]imidazo [1,2-c]pyrimidin-1,9(2H)-dione] as the molecule, how does the IC50 read?
A: 5.1 nM

Q: `O=C(NCc1ccccc1)C12CN3c4cc(OCc5ccc(Oc6ccnc(C(F)(F)F)c6)c(F)c5)nc(=O)n4CC3(C1)C2` [Example 199, N-benzyl-3-((3-fluoro-4-((2-(trifluoromethyl)pyridin-4-yl)oxy)benzyl)oxy)-1-oxo-1H,6H, 9H-7,8a-methanopyrrolo[1′,2′:3,4]imidazo [1,2-c]pyrimidine-7(8H)-carboxamide] was tested. Which IC50 did it give?
A: 7.9 nM

Q: Which IC50 does the source give for `N#CC12CN3c4cc(OCc5ccc(Oc6ccnc(C(F)(F)F)c6)c(F)c5)nc(=O)n4CC3(C1)C2` [Example 200, 3-((3-fluoro-4-((2-(trifluoromethyl)pyridin-4-yl)oxy)benzyl)oxy)-1-oxo-1H,6H,9H-7,8a-methanopyrrolo[1′,2′:3,4]imidazo[1,2-c] pyrimidine-7(8H)-carbonitrile] here?
A: 4.4 nM

Q: `CC(C)(O)C12CN3c4cc(OCc5ccc(Oc6ccnc(C(F)(F)F)c6)c(F)c5)nc(=O)n4CC3(C1)C2` [Example 201, 3-((3-Fluoro-4-((2-trifluoromethylpyridin-4-yl)oxy)benzyl)oxy)-7-(2-hydroxypropyl-2-yl)-7,8-dihydro-1H,6H,9H-7,8a-methanopyrrolo[1′, 2′:3, 4]imidazo[1,2-c]pyrimidin-1-one] was tested. Which IC50 did it give?
A: 4.4 nM

Reference: patent US20230044787A1, “TRICYCLE DIHYDROIMIDAZOPYRIMIDONE DERIVATIVE, PREPARATION METHOD THEREOF, PHARMACEUTICAL COMPOSITION AND USE THEREOF” (priority 2019, published 2023)
